According to US10781197B2, “Sulfonamide analogues of galiellalactone” (GLACTONE PHARMA DEVELOPMENT AB, priority 2016, dated 2020):
Like-named read-outs stand apart in the source and are kept apart here.

What was measured:
[1] = test system: STAT3 signaling; experiment: STAT3 Luciferase reporter gene assay; type: cell-based; conditions: Homo sapiens; STAT3 reporter/HEK293 cell line, 1 h pretreatment, IL-6 induced for 16 h, luciferase activity; read-out: IC50
Experimental: The ability to inhibit STAT3 signaling of the example compounds in comparison to galiellalactone was evaluated using a STAT3 Luciferase reporter gene assay.
Compounds were tested for dose response activity to determine IC50 at eight different doses (0.03, 0.1, 0.3, 1, 3, 10, 30 and 100 μM) in triplicate on the STAT3 reporter system.
Briefly, the STAT3 reporter/HEK293 cell line was plated in 96-well white plates for 16 h. Cells were pretreated with compounds for 1 h. Cells were then treated with IL-6 to induce STAT3 activation for 16 h. Luciferase activity was measured and analyzed.

[2] = In vivo pharmacokinetics, plasma exposure after single oral dose; conditions: CD1 mice, single oral gavage 10 mg/kg
Experimental: Pharmacokinetic (PK) studies were performed in CD1 mice to establish plasma exposure following administration of single oral doses of galiellalactone (GL) and example 1. Sample analysis was by LC-MS/MS. Dose solutions were prepared at a drug concentration of 0.5 mg/mL in 5% DMSO in 50 mM citrate buffer (citric acid/sodium citrate pH 4.0) and administered as a 20 mL/kg oral gavage (10 mg/kg).

[3] = test system: IL-6 stimulated LNCaP prostate cancer cells; experiment: Inhibition of IL-6 stimulated LNCaP cell proliferation, MTT assay; type: cell-based; conditions: Homo sapiens, IL-6 stimulated LNCaP cells, read-out: GIC50
[4] = Chemical stability in phosphate buffer solution (PBS); type: physicochemical; conditions: 37° C., 1 μM test concentration
Experimental: The chemical stability of example 20 and 28 in solution was determined in phosphate buffer solution (PBS) at 37° C. as outlined below.
A 4 μl volume of 100 μM stock solution of the study compound in 50% DMSO was added to 396 μl of PBS, to obtain 1 μM test concentration. The study compounds were incubated in PBS at 37° C. with 600 rpm shaking. The incubations were quenched (30, 60, and 120 min) using a two-fold volume of cold acetonitrile and analyzed. The samples (0, 30, 60, and 120 min) were analyzed using a Waters Acquity UPLC with Thermo Q-Exactive Focus Orbitrap and a Waters HSS T3 (2.1×50 mm, 1.7 μm particle size) column.

[5] = test system: IL-6/STAT3 signaling; conditions: cited from earlier work

| IC50 [1] [nM] | AUC(0-inf) ([2]; mouse) [ng·h/mL] | AUC(0-t) ([2]; mouse) [ng·h/mL] | half-life ([2]; mouse, read-out: Apparent half-life (converted)) [h] | Cmax ([2]; mouse, read-out: Cmax) [ng/mL] | Tmax ([2]; mouse, read-out: Tmax) [h] | IC50 [3] [nM] | half-life at 1 μM [4] [h] | Cmax [2] [ng/mL] | Tmax [2] [h] | Structure (SMILES) | inhibition of IL-6/STAT3 signaling [5] |
| --- | --- | --- | --- | --- | --- | --- | --- | --- | --- | --- | --- |
| 1100 | 157 | 141 | 2 | 129 | 0.25 | 1000 |  |  |  | Cc1ccc(S(=O)(=O)N[C@@]2(C)C=C3C(=O)O[C@@H]4CC[C@H](C2)[C@]34O)cc1 [Example 1, N-[(4R,7R,9R,11S)-11-Hydroxy-9-methyl-2-oxo-3-oxatricyclo[5.3.1.0^4,11]undec-1(10)-en-9-yl]-4-methylbenzene-1-sulfonamide] |  |
| 1250 |  |  |  |  |  |  | 5.82 |  |  | C[C@]1(NS(=O)(=O)c2ccc(C(F)(F)F)cn2)C=C2C(=O)O[C@@H]3CCC(C1)[C@]23O (stereo partly drawn) [Example 20, N-[(4R,7R,9R,11S)-11-hydroxy-9-methyl-2-oxo-3-oxatricyclo[5.3.1.0^4,^11]undec-1(10)-en-9-yl]-5-(trifluoromethyl)pyridine-2-sulfonamide] |  |
| 920 |  |  |  |  |  |  | > 13.2 |  |  | C[C@]1(NS(=O)(=O)c2ccc(C(F)(F)F)cn2)C=C2C(=O)O[C@]3(C)CC[C@H](C1)[C@]23O [Example 28, N-[(4R,7R,9R,11S)-11-hydroxy-4,9-dimethyl-2-oxo-3-oxatricyclo[5.3.1.0^4,11]undec-1 (10)-en-9-yl]-5-(trifluoromethyl)pyridine-2-sulfonamide] |  |
| 7500 |  |  |  |  |  | 2800 |  | 52 | 0.5 | C[C@@H]1C=C2C(=O)O[C@@H]3CC[C@H](C1)[C@]23O [Galiellalactone, (−)-Galiellalactone] | submicromolar |
